SMILES strings stand for the structures. Where a name gives a salt, the structure may show the parent alone. ± gives the uncertainty stated by the source.

Data set [1] has as its system THP-1. The experiment in a line: efficacy of IL-8 induction relative to DMSO (% activity); higher = stronger induction. The following applies: exposure time: 18 h.
In data set [2] the test system is lysine peptide Ac-RFAAKAA-COOH. The experiment in a line: efficacy of lysine peptide change (negative = depletion) (% activity); higher = less depletion. As to conditions: incubation time: 24 h.
Data set [3] concerns cysteine peptide Ac-RFAACAA-COOH. The experiment in a line: efficacy of cysteine peptide change (negative = depletion) (% activity); higher = less depletion. As to conditions: incubation time: 24 h.
Data set [4] deals with KeratinoSens (HaCaT ARE-luciferase) cells. The experiment in a line: efficacy of ARE luciferase induction relative to DMSO (% activity over DMSO); higher = stronger induction. The following applies: exposure time: 24 h.
Data set [5] shares this test system. The experiment in a line: cytotoxicity AC50 (CellTiter-Fluor viability); higher = less cytotoxic. The following applies: exposure time: 24 h.

`O=C(O)c1cn(C2CC2)c2cc(N3CCNCC3)c(F)cc2c1=O` [Ciprofloxacin]: in data set [1], the “efficacy of IL-8 induction” value is 0. The “efficacy of lysine peptide change” value in data set [2] is -2.18 ± 19. For the same compound, the “efficacy of cysteine peptide change” value in data set [3] is 8.17 ± 8.2. The “efficacy of ARE luciferase induction” value in data set [4] was 14.6 ± 25.
The corresponding values for `C#CCN(C)CCCOc1ccc(Cl)cc1Cl` [Clorgyline hydrochloride] are 0, 20.7 ± 22, 42.2 ± 21 and 43.6 ± 25.
Turning to `O=C(O)CCCCCCCCC(=O)O` [Decanedioic acid], the “efficacy of IL-8 induction” value in data set [1] was determined as 0.59 ± 6. In addition, the “efficacy of lysine peptide change” value in data set [2] worked out at 3.76 ± 20. Moreover, the “efficacy of cysteine peptide change” value in data set [3] is 54.5. The “efficacy of ARE luciferase induction” value in data set [4] is 5.23 ± 4.5.
For the compound `CCOC(=O)CCC(=O)OCC` [Diethyl butanedioate], in data set [1], the “efficacy of IL-8 induction” value came out at 3.24 ± 5.6. The “efficacy of lysine peptide change” value in data set [2] is 2.82 ± 10. Besides, the “efficacy of cysteine peptide change” value in data set [3] was determined as 47 ± 2.6. In addition, the “efficacy of ARE luciferase induction” value in data set [4] was determined as 24.9 ± 23.
As for `c1cc(OCC2CO2)cc(OCC2CO2)c1` (configuration not stated) [Diglycidyl resorcinol ether (DGRE)], in data set [5], the “cytotoxicity AC50” value came to 63.9 ± 12 µM. Also, in data set [1], the “efficacy of IL-8 induction” value came to 29.2 ± 11. Further, in data set [2], the “efficacy of lysine peptide change” value was determined as 46.9 ± 8.6. For the same compound, the “efficacy of cysteine peptide change” value in data set [3] is -8.5 ± 7.8. For the same compound, the “efficacy of ARE luciferase induction” value in data set [4] is 74.5 ± 5.8.
With `COP(=O)(O)OP(=O)(O)OC` [Dimethyl dihydrogen diphosphate], the “efficacy of IL-8 induction” value in data set [1] was 0. In addition, the “efficacy of lysine peptide change” value in data set [2] is 4.84 ± 8.4. In addition, the “efficacy of cysteine peptide change” value in data set [3] came to 0. In addition, the “efficacy of ARE luciferase induction” value in data set [4] amounted to 22.1 ± 30.
Regarding `COC(=O)CCCCCCCC(=O)OC` [Dimethyl nonanedioate], in data set [1], the “efficacy of IL-8 induction” value is 0. Further, in data set [2], the “efficacy of lysine peptide change” value was found to be 21.8 ± 24. Also, the “efficacy of cysteine peptide change” value in data set [3] came to 59.7 ± 11. For the same compound, in data set [4], the “efficacy of ARE luciferase induction” value came to 10.6 ± 13.
The corresponding values for `C=CCOC(=O)/C=C\C(=O)OCC=C` [Diprop-2-en-1-yl (2Z)-but-2-enedioate] are 3.9 ± 6.8, -4.75 ± 8.2, -44.3 ± 3.7 and 23.7 ± 6.3.
In the case of `COP(=S)(OC)Oc1ccc(SC)c(C)c1` [Fenthion], the “efficacy of IL-8 induction” value in data set [1] is -2.61 ± 4.5. In addition, in data set [2], the “efficacy of lysine peptide change” value was determined as 2.04 ± 28. Besides, in data set [3], the “efficacy of cysteine peptide change” value was found to be 0.74 ± 16. Moreover, the “efficacy of ARE luciferase induction” value in data set [4] stood at 17.4 ± 5.5.
The corresponding values for `Clc1ccc(C(Cn2ccnc2)OCc2ccc(Sc3ccccc3)cc2)c(Cl)c1` (configuration not stated) [Fenticonazole nitrate] are 3.64 ± 6.3, 1.96 ± 25, -8.26 ± 7.2 and 51.9 ± 25.
The corresponding values for `O=c1cc(-c2ccccc2)oc2ccccc12` [Flavone] are 3.56 ± 6.2, 50.2 ± 3.4, -1.8 ± 3.1 and 27 ± 10.
On to `Cc1c(C)n(Cc2ccccc2)c2ccc(C(=O)OCCN(C)C)cc12` [Indocate], for which the “cytotoxicity AC50” value in data set [5] was 28.7 ± 6.6 µM. Further, the “efficacy of IL-8 induction” value in data set [1] stood at 17 ± 9.1. In data set [2], the “efficacy of lysine peptide change” value was 90.6 ± 13. Moreover, the “efficacy of cysteine peptide change” value in data set [3] was found to be 17.7 ± 6. In addition, the “efficacy of ARE luciferase induction” value in data set [4] is 22.8 ± 4.9.
As for `Clc1ccc(C(Cn2ccnc2)OCc2c(Cl)cccc2Cl)c(Cl)c1` (configuration not stated) [Isoconazole], in data set [5], the “cytotoxicity AC50” value is 13.1 ± 0.89 µM. Further, the “efficacy of IL-8 induction” value in data set [1] is 8.24 ± 7.5. In addition, the “efficacy of lysine peptide change” value in data set [2] was 65.7 ± 12. For the same compound, the “efficacy of cysteine peptide change” value in data set [3] came out at 1.83 ± 9.7. In addition, the “efficacy of ARE luciferase induction” value in data set [4] is 15 ± 17.
Turning to `CCC(C)(CC)c1cc(NC(=O)c2c(OC)cccc2OC)on1` [Isoxaben], the “efficacy of IL-8 induction” value in data set [1] turned out to be 2.21 ± 15. Also, the “efficacy of lysine peptide change” value in data set [2] stood at 47.2 ± 16. Also, the “efficacy of cysteine peptide change” value in data set [3] was determined as 21.1 ± 6.2. The “efficacy of ARE luciferase induction” value in data set [4] was 20.2 ± 5.5.
The corresponding values for `CCCCCCCCCCCCN(CCO)CCO` [Lauryldiethanolamine] are 30.1 ± 14, 109 ± 17, -45.7 ± 16 and -12.7 ± 56.
The corresponding values for `COc1ccc(C(=O)c2ccc(C)cc2)c(O)c1` [Mexenone] are 10.8 ± 9.8, 9.47 ± 3, 2.33 ± 4 and 28 ± 31.
The corresponding values for `CO[C@@]12[C@H](COC(N)=O)C3=C(C(=O)C(C)=C(N)C3=O)N1C[C@@H]1N[C@@H]12` [Mitomycin C] are 12.9 ± 11, 0, -37 ± 6.3 and 17.2 ± 24.
Turning to `CNC(=S)NN` [N-Methylhydrazinecarbothioamide], in data set [5], the “cytotoxicity AC50” value was 22.5 ± 2.6 µM. In data set [1], the “efficacy of IL-8 induction” value stood at 91.8 ± 17. For the same compound, the “efficacy of lysine peptide change” value in data set [2] is -0.75 ± 9.8. In data set [3], the “efficacy of cysteine peptide change” value is -58.5 ± 10. Further, the “efficacy of ARE luciferase induction” value in data set [4] is -12.3 ± 42.
Turning to `CC(C)NC(=O)c1ccc(C=O)cc1` [N-isopropyl-4-formylbenzamide], the “efficacy of IL-8 induction” value in data set [1] was found to be 29.6 ± 51. The “efficacy of lysine peptide change” value in data set [2] was determined as 54.8 ± 7.6. Also, the “efficacy of cysteine peptide change” value in data set [3] is -2.83 ± 4.9. Moreover, in data set [4], the “efficacy of ARE luciferase induction” value is 32.9 ± 39.
The corresponding values for `CCCCCOc1ccccc1/C(=C\SC)n1ccnc1` [Neticonazole] are 23.6 ± 1.8, 64.1 ± 7.7, -4.4 ± 7.6 and 21.4 ± 9.5.
In the case of `O=C(O)c1cccnc1Nc1cccc(C(F)(F)F)c1` [Niflumic acid], the “efficacy of IL-8 induction” value in data set [1] is 0. In addition, the “efficacy of lysine peptide change” value in data set [2] turned out to be 93.9 ± 56. Further, the “efficacy of cysteine peptide change” value in data set [3] is 40.2 ± 6.4. In addition, in data set [4], the “efficacy of ARE luciferase induction” value worked out at 59.7 ± 37.
`NC(=O)N/N=C/c1ccc([N+](=O)[O-])o1` [Nitrofurazone]: the “efficacy of IL-8 induction” value in data set [1] amounted to 0. Further, the “efficacy of lysine peptide change” value in data set [2] is -8.37 ± 1.2. Also, the “efficacy of cysteine peptide change” value in data set [3] was -39.2 ± 4.3. The “efficacy of ARE luciferase induction” value in data set [4] was 37 ± 47.
The corresponding values for `CCCCCCCC/C=C\CCCCCCCC(=O)N(C)CC(=O)O` [Oleyl sarcosine] are 0, 3.95 ± 6.8, -5.45 ± 4.8 and -5.73 ± 8.1.
The corresponding values for `COC(=O)Nc1nc2cc([S+]([O-])c3ccccc3)ccc2[nH]1` (configuration not stated) [Oxfendazole] are 2.33 ± 4, -8.69 ± 25, 13.2 ± 15 and 0.
In the case of `CC1=C(C(=O)Nc2ccccc2)S(=O)(=O)CCO1` [Oxycarboxin], in data set [5], the “cytotoxicity AC50” value is 32.9 ± 2.2 µM. In addition, in data set [1], the “efficacy of IL-8 induction” value is 0. Moreover, in data set [4], the “efficacy of ARE luciferase induction” value came out at 52.3 ± 47.
On to `CC(=O)Oc1ccc(C2(c3ccc(OC(C)=O)cc3)C(=O)Nc3ccccc32)cc1` [Oxyphenisatin acetate], for which the “efficacy of IL-8 induction” value in data set [1] worked out at 0. Moreover, the “efficacy of lysine peptide change” value in data set [2] came out at 34.2 ± 19. Also, the “efficacy of cysteine peptide change” value in data set [3] worked out at 0.29 ± 11. Also, in data set [4], the “efficacy of ARE luciferase induction” value is 49 ± 42.
The corresponding values for `CC(C(=O)O)c1ccc(/C=C2\CCCCC2=O)cc1` (configuration not stated) [Pelubiprofen] are 0, 56.7 ± 8.3, -2.83 ± 4.9 and -2.46 ± 29.
The corresponding values for `O=C(Oc1ccccc1)c1ccccc1O` [Phenyl salicylate] are 0, 10.7 ± 13, 9.93 ± 10 and 8.07 ± 11.
The corresponding values for `CCOP(=S)(OCC)Oc1cnc2ccccc2n1` [Quinalphos] are 7.62 ± 6.8, 10.6 ± 9.3, 97.5 ± 350 and 37.5 ± 24.
Regarding `CCNc1nc(NC(C)(C)C)nc(SC)n1` [Terbutryn], in data set [1], the “efficacy of IL-8 induction” value was 4.42 ± 7.7. Moreover, the “efficacy of lysine peptide change” value in data set [2] came out at 139 ± 22. Moreover, the “efficacy of cysteine peptide change” value in data set [3] was determined as 21.4 ± 20. Also, the “efficacy of ARE luciferase induction” value in data set [4] is 8.44 ± 7.8.
The corresponding values for `CCOC(=O)NC(=S)Nc1ccccc1NC(=S)NC(=O)OCC` [Thiophanate] are 3.6 ± 6.2, 34.5 ± 10, -5.09 ± 4.7 and 98.8 ± 100.
The corresponding values for `Cc1cccc(N(C)C(=S)Oc2ccc3c(c2)C2CCC3C2)c1` (configuration not stated) [Tolciclate] are 22.4 ± 2.8, -7.88 ± 7, -30.8 ± 9.8 and 46.5 ± 33.
The corresponding values for `Cc1ccc(N=C=O)cc1N=C=O` [Toluene-2,4-diisocyanate] are 33 ± 3.5, -3.03 ± 21, -19.2 ± 5 and 82.9 ± 38.
Regarding `NCCc1ccc(O)cc1` [Tyramine], the “efficacy of IL-8 induction” value in data set [1] worked out at 0. Also, in data set [2], the “efficacy of lysine peptide change” value is -1.41 ± 14. Further, the “efficacy of cysteine peptide change” value in data set [3] is 10.7 ± 18. Also, the “efficacy of ARE luciferase induction” value in data set [4] is 17 ± 9.
The corresponding values for `CCCCCCCCN` [n-Octylamine] are 0, -6.29 ± 6.4, 0 and 47.1 ± 74.
The corresponding values for `CC(C)(C)OC(=O)c1ccc(O)cc1` [tert-Butyl 4-hydroxybenzoate] are 0, 58.9 ± 23, -19.7 ± 9.4 and 28.1 ± 9.8.

The values above are taken from the supplement of paper PMC10933113.
